In article PMC9103596, “The inhibitory effect of boric acid on hypoxia-regulated tumour-associated carbonic anhydrase IX” (Journal of Enzyme Inhibition and Medicinal Chemistry, 2022):
Read-outs that look alike come from different tables or passages of the source.

Tests used:
[1] = tested on: CA IX levels in HT29 cells; conditions: treated at IC50 concentration for 24 h, ELISA
Description: Cells were incubated at 37 °C and 5% CO2 in 25cm[3] flasks. On reaching 80–90% confluence, cell harvesting was performed by washing cells in phosphate-buffered saline (PBS) and then detached from the flask surface using trypsin-EDTA. Cell count was determined using a hematocytometer. Two separate cultures each for both HT29 and A375 were grown, one under normoxic conditions and the second one under hypoxic conditions. The normoxic cultures for HT29 and A375 were grown and incubated at normoxic conditions (37 °C and 5% CO2). […] The hypoxic chamber was placed in a 37 °C incubator for 4 h. Hypoxia conditions were confirmed by detecting HIF-1α protein level by using an ELISA kit (Shangai Koon, Shanghai, China).
HT29 and A375 cells were seeded 0.3 × 10^6 cells/well into two separate six-well plates. On each well-plate, one column was treated with BA, the second was treated with AZA, and the third column was left untreated, serving as a control. […] The plates were then set aside to incubate for 24 h under normoxic conditions (37 °C and 5% CO2).
The lysates were collected by centrifugation at 13,000 × g for 15 min at 4 °C. […] These protein levels were determined by using CA IX ELISA kit and HIF1α ELISA kit according to the manufacturer’s instructions. […] Of 50 µL of the stop solution was then added and the microplates were read at 450 nm using the Epoch micro-plate reader (BioTek, Cambridge, MA).

[2] = tested on: CA IX levels in A375 cells; conditions: treated at IC50 concentration for 24 h, ELISA
Description: (§1) Cells were incubated at 37 °C and 5% CO2 in 25cm[3] flasks. On reaching 80–90% confluence, cell harvesting was performed by washing cells in phosphate-buffered saline (PBS) and then detached from the flask surface using trypsin-EDTA. Cell count was determined using a hematocytometer. Two separate cultures each for both HT29 and A375 were grown, one under normoxic conditions and the second one under hypoxic conditions. The normoxic cultures for HT29 and A375 were grown and incubated at normoxic conditions (37 °C and 5% CO2). […] The hypoxic chamber was placed in a 37 °C incubator for 4 h.
(§2) WST-1 reagent was used to measure mitochondrial dehydrogenase activity and determine cell viability. A 0.5 M stock of B(OH)3 was prepared by dissolving 0.309 g of B(OH)3 in 10 ml of distilled water. HT29 and A375 cells were seeded on 96-well plates and incubated for 24 h, allowing them to adhere to the wells before treatment with B(OH)3. Cells were then treated with 2.5, 5, 10, 25 50, 100, and 200 mM B(OH)3 and topped to 100 µL with a prepared cell medium (one well remaining as an untreated, negative control). The plates were then incubated for 24 and 48 h periods. After each period, […] WST-1 reagent was added to each well and then the plate was incubated for another 3–4 h at 37 °C with 5% CO2. The plates were read by using an Epoch microplate reader (BioTek, Cambridge, MA) with a wavelength of 450 nm. The results were analysed by using GraphPad Prism version 9 (Graphpad Software Inc., La Jolla, CA), for determining the IC50 values, with AZA as standard CA inhibitor. HT29 and A375 cells were seeded 0.3 × 10^6 cells/well into two separate six-well plates. On each well-plate, one column was treated with BA, the second was treated with AZA, and the third column was left untreated, serving as a control.

[3] = tested on: A375 (human malignant melanoma) cells; conditions: read-out: IC50 cell viability; A375, WST-1, 48 h
Description: as §1, §2

[4] = tested on: HT29 (human colon cancer) cells; conditions: read-out: IC50 cell viability
Description: as §1, §2

[5] = tested on: androgen-sensitive LNCaP prostate cancer cells; conditions: nude mice injected with LNCaP cells, treated with BA; cited from earlier work
[6] = target: hCA I (Homo sapiens, UniProt P00915); conditions: read-out: KI hCA I; stopped-flow CO2 hydrase assay, mean from three assays
Description: (§3) The uncatalysed rates were determined in the same manner and subtracted from the total observed rates. Stock solutions of BA (or other inhibitors) (100 mM) were prepared in distilled – deionised water, and dilutions up to 0.01 nM were done thereafter with the assay buffer. Inhibitor and enzyme solutions were preincubated together for 6 h at room temperature prior to assay in order to allow for the formation of the E–I complex. The inhibition constants were obtained by nonlinear least-squares methods using PRISM 3 and the Cheng–Prusoff equation, as reported earlier, and represent the mean from at least three different determinations.

[7] = target: hCA II (Homo sapiens, UniProt P00918); conditions: read-out: KI hCA II; stopped-flow CO2 hydrase assay, mean from three assays
Description: as §3

[8] = target: hCA IX (Homo sapiens, UniProt Q16790); conditions: read-out: KI hCA IX
Description: as §3

[9] = target: hCA XII (Homo sapiens, UniProt O43570); conditions: read-out: KI hCA XII; stopped-flow CO2 hydrase assay, mean from three assays
Description: as §3

Chain of hCA I (P00915 whole entry): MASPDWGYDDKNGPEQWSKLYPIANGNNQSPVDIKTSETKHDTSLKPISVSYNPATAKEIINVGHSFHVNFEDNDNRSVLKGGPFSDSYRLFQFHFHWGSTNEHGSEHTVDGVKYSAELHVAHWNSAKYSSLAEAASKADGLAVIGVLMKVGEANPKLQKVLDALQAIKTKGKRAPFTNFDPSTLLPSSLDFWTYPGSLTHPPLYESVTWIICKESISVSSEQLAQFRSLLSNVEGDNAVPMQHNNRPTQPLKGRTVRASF
Chain of hCA XII (O43570 25-354): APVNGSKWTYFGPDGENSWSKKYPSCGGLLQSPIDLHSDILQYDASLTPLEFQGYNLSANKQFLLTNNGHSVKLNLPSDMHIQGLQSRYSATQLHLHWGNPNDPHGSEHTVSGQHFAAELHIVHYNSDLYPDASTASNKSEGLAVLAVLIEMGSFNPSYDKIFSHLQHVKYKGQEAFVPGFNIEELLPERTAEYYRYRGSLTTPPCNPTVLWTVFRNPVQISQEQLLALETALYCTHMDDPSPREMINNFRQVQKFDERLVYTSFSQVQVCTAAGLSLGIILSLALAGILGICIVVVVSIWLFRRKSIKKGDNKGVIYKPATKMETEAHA

OB(O)O [Boric acid]
CA IX levels compared to control ([1]; HT29 hypoxic cell cultures): increase | CA IX levels compared to control ([1]; HT29 normoxic cell cultures): slight increase | CA IX levels compared to control ([2]; A375 hypoxic cell cultures): significantly reduced | CA IX levels compared to control ([2]; A375 normoxic cell cultures): significantly reduced | IC50 [3]: 15.5 mM | IC50 ([4]; HT29, WST-1, 24 h): 19.6 mM | IC50 ([4]; HT29, WST-1, 48 h): 23 mM | decrease in plasma PSA levels [5]: 88% | decrease in tumour growth [5]: 25 − 35% | Ki [6]: 29.9 mM | Ki [7]: 41 mM | Ki [8]: 2.8 mM | Ki [9]: 6.2 mM
